Measured values reported in US20240166658A1, “PORPHYRIN DERIVATIVES AND USES THEREOF” (University of Tasmania, priority 2021, published 2024).

Key:
[1] = Rodea-Palomares et al., 2012; cited from earlier work
[2] = Preliminary binding study of urea linked host, UV-Vis; conditions: dichloromethane
Excerpt: However, these colorimetric changes were weaker than that observed with the amide equivalent, likely due to the formation of an insoluble precipitate upon binding. Binding of the urea linked porphyrin host with PFOA and PFOS was also confirmed by ^19F NMR spectra (FIG. 7).

Aqueous extraction tests = conditions: PFOA 5.5 × 10^−4 M in water (~228 ppm), volume 1:1
Method: Aqueous solutions of PFOA were prepared and combined with an organic phase of sensor molecule (9) in dichloromethane. Colour change observations at various sensor concentrations are described in Table 12.

[3] = UV-Vis host-guest titration, association constant; type: binding; conditions: short, medium and long chain sensor molecules with PFOA
Method: Path length of the quartz cell was 1 cm. For UV-vis titrations, a stock solution of host was prepared (2.2×10^−3 M) in dichloromethane (DCM) and serially diluted to the required concentrations. Working solutions of tetrabutylammonium (TBA) anion salts or guest molecules were prepared in the same manner Host−guest titrations used solutions of guest prepared in the working concentration of host solution, according to the procedure of Thordarson, 2011.
UV-vis spectroscopic host−guest titrations were performed in accordance with the methodologies of Thordarson, 2011. Solutions of host in dichloromethane were prepared. Solutions of guest were then prepared in the host solution. Aliquots of guest in host solution were added to host solution and sequentially analysed until a known molar equivalent of guest was added. The amount of guest added per aliquot was ascertained by a preliminary screening experiment; strong association constants required smaller molar equivalents so more information could be collected. […] The inverse is true for weaker binding interactions. Molar equivalents between 0.1-5 typically provided adequate information for modelling. The data was then used to simulate binding isotherms using www.supramolecular.org (Hibbert and Thordarson, 2016). The data was fitted to 1:1, 1:2 and 2:1 equilibria making no assumptions about the cooperativity of the binding interactions and modelled using different algorithms. These experiments mainly used the Nelder-Mead (Simplex) method.
UV-Vis spectroscopy binding studies were used to determine the association constant for the host (9)−PFOA complex.
A host solution of host (9) in dichloromethane was monitored using UV-Vis analysis as 0.5-10 equivalents of each PFAS was added. […] The data was processed using Bindfit isotherm simulators using both Nelder-Mead and L-BFGS-B methods (Thordarson, 2011).
To highlight any potential binding preferences across the PFCAs from the host molecules, triplicates of host−guest addition titrations were performed using host (9) and the TBA salts of the nine different deprotonated PFCAs.

[4] = PFCA guest response screening (RGB analysis, UV-Vis)
Method: A Puluz® 20 cm portable light tent with moderate and dispersed white LED lighting was used to photograph samples using an iPhone 6S plus camera on a fixed tripod. The automatic flash settings were disabled so there was no reflective interference on the sample vials. Samples that were being directly compared were photographed together to ensure lighting conditions and settings were consistent. The photographs were analysed using ImageJ software according to the procedure of Gallagher, 2014b. Multiple RGB values were chosen from areas of each sample at random to provide an “average” RGB value (Menesatti et al., 2012; Gallagher, 2014a; Phuangsaijai et al., 2021). Those RGB values were used to produce an artificial colour tile for visual comparison, or parameterized for modelling.
To quantify a colour difference, RGB values were transformed within the CIELab colour space. The difference, expressed as ΔE, was determined by measuring the relative distance between two colours. The numeric ΔE value can be used to predict how the two colours are perceived by a standard observer; a ΔE>2 is considered the minimum value to achieve a “just noticeable difference” (JND) (Table 1), which is the smallest difference required for an untrained observer to be able to determine two colours as being different (Castillo et al., 2021).
(§1) Experiments were performed at concentrations that could be monitored by the naked eye for practical sensing of PFAS in the field. Complexes of hosts (9), (11) and (12) were formed with the nine different perfluorocarboxylic acids (PFCAs) shown in Table 2 above and the colours of each host−PFCA complex were photographed in a lightbox and analysed using ImageJ software RGB analysis. Pixels of the solution were chosen at random to provide an RGB value. Multiple RGB values were recorded for each host−PFCA solution, and an average colour can be produced. From those values an RGB parameter was used to give a response value for modelling (Tahir et al., 2016).
(§2) After preliminary screenings, UV-Vis spectra were collected before and after the addition of 1 molar equivalent of each PFCA for each host, and the degree of complexation was noted by shifts in the Soret bands and formation of a peak at ca. 650 nm. To eliminate dilution effects, PFCA guest solutions were prepared in the equivalent concentration of host. If there was a notable host−guest interaction for a particular PFCA, the host−guest binding was investigated with more rigorous UV-Vis experiments, binding studies, and further colour analyses. Throughout these investigations, PFOA was considered the “average” PFCA both because of its position in the range of PFCA sizes and because its prevalence is often an indication of broader PFAS contamination. In any experiment where binding was further investigated for a particular PFCA, it was typically replicated with PFOA for comparison.

[5] = PFCA guest response across the nine PFCAs (UV-Vis, RGB, one-way ANOVA variance); conditions: dichloromethane
Method: as §1, §2
One-way factorial ANOVA was used to examine the dependence (or independence) of two or more factors affecting the dependent variable concurrently, in the present case the change in absorption, or the change in RGB response across the tested PFCAs, or across the different hosts. This analysis was used to determine the variance in the responses of each host across the different PFCAs. […]

[6] = Colorimetric calibration chart, RGB response to known PFOA concentrations; conditions: PFOA 0.7 ppm, dichloromethane
Method: The host molecules were combined with known concentrations of PFOA to provide RGB colour responses, which were used to create a colorimetric calibration chart that could be trialled as an indicator for estimating the total concentration of a range of any PFCAs. Solutions of each host molecule (1.00×10^−5 M) were prepared in dichloromethane. Solutions of PFOA in dichloromethane were prepared across a range of concentrations (0→16 ppm, 4.00×10^−5 M). Each host (2 mL) was combined with each PFOA concentration (1 mL, final concentration 0→1.33×10^−5 M) and photographed under equivalent lighting conditions. The average colour of each solution was then found using ImageJ RGB analysis, and a colour chart was produced.
For this reason, parametrization of the RGB values can be useful for interpreting results. The RGB response parameter can be calculated using the RGB values of the “blank” host solution (Šafranko et al., 2019) and the effective intensities of the individual RGB values of a sample (Tahir et al., 2016):
Here, H, indicates the values for the host solution, and S, indicates the response for a sample containing a PFCA, so that ΔR, ΔG, and ΔB give the colour differences. The RGB parameter is the response due to the relative difference in the RGB intensities:
The RGB values collected for each host with a range of known concentrations of PFOA in dichloromethane were parameterized and used to determine a relationship between concentration of analyte and RGB response values. […] The relationship between RGB response values and concentrations of PFOA could now be tested for accuracy in determining the concentration of any PFCA.

[7] = 1H NMR titration with GenX in CDCl3; type: binding; conditions: host 6.85×10^−4 M in CDCl3, 20 μL aliquots of guest

For O=C(O)C(F)(F)C(F)(F)C(F)(F)C(F)(F)C(F)(F)C(F)(F)C(F)(F)F [PFOA, Perfluorooctanoic acid], the logKo/w [1] is listed as “ca. 6.44”.

With O=C(NC(=O)C(F)(F)C(F)(F)C(F)(F)C(F)(F)C(F)(F)C(F)(F)C(F)(F)F)Nc1ccccc1-c1c2nc(c(-c3ccccc3NC(=O)NC(=O)C(F)(F)C(F)(F)C(F)(F)C(F)(F)C(F)(F)C(F)(F)C(F)(F)F)c3ccc([nH]3)c(-c3ccccc3NC(=O)NC(=O)C(F)(F)C(F)(F)C(F)(F)C(F)(F)C(F)(F)C(F)(F)C(F)(F)F)c3nc(c(-c4ccccc4NC(=O)NC(=O)C(F)(F)C(F)(F)C(F)(F)C(F)(F)C(F)(F)C(F)(F)C(F)(F)F)c4ccc1[nH]4)C=C3)C=C2 [host (10), 5,10,15,20-tetra-(2-ureaphenyl-pentadecafluoro-octanoyl) porphyrin] the “colour change by UV-Vis spectrophotometric analysis” value ([2]; addition of PFOA) was “discernible colour change”, the “colour change by UV-Vis spectrophotometric analysis” value ([2]; addition of PFOS) was “discernible colour change” and the Observations (Aqueous extraction tests; sensor 1.1 × 10^−6 M in DCM, H:G 1:500) was “Some colour change,”. The Observations (Aqueous extraction tests; sensor 2.2 × 10^−3 M in DCM, H:G 4:1) was “Strong colour change”, the Observations (Aqueous extraction tests; sensor 2.2 × 10^−4 M in DCM, H:G 2:5) was “Strong colour change” and the Observations (Aqueous extraction tests; sensor 2.2 × 10^−5 M in DCM, H:G 1:25) was “Strong colour change”.

With O=C(Nc1ccccc1-c1c2nc(c(-c3ccccc3NC(=O)C(F)(F)C(F)(F)C(F)(F)F)c3ccc([nH]3)c(-c3ccccc3NC(=O)C(F)(F)C(F)(F)C(F)(F)F)c3nc(c(-c4ccccc4NC(=O)C(F)(F)C(F)(F)C(F)(F)F)c4ccc1[nH]4)C=C3)C=C2)C(F)(F)C(F)(F)C(F)(F)F [host (11), α,α,α,α-5,10,15,20-tetra(2-(heptafluorobutanoylamino)phenyl) porphyrin] the K [3] was 1.19e+06 M⁻¹, the “Absorbance @ 650 nm” value ([4]; host + one equivalent PFBA in dichloromethane) was 0.113 and the “Absorbance @ 650 nm” value ([4]; host + one equivalent PFDA in dichloromethane) was 0.0469. For the same compound, the “Absorbance @ 650 nm” value ([4]; host + one equivalent PFDoDA in dichloromethane) was 0.0519, the “Absorbance @ 650 nm” value ([4]; host + one equivalent PFHpA in dichloromethane) was 0.1009 and the “Absorbance @ 650 nm” value ([4]; host + one equivalent PFHxA in dichloromethane) was 0.0967. The “Absorbance @ 650 nm” value ([4]; host + one equivalent PFNA in dichloromethane) was 0.0473, the “Absorbance @ 650 nm” value ([4]; host + one equivalent PFOA in dichloromethane) was 0.0977 and the “Absorbance @ 650 nm” value ([4]; host + one equivalent PFPeA in dichloromethane) was 0.1125. For the same compound, the “Absorbance @ 650 nm” value ([4]; host + one equivalent PFUnDA in dichloromethane) was 0.0475, the ΔEHost-PFCA ([4]; host vs host + PFBA) was 45.9 and the ΔEHost-PFCA ([4]; host vs host + PFDA) was 27.0. For the same compound, the ΔEHost-PFCA ([4]; host vs host + PFDoDA) was 27.2, the ΔEHost-PFCA ([4]; host vs host + PFHpA) was 43.2 and the ΔEHost-PFCA ([4]; host vs host + PFHxA) was 44.4. For the same compound, the ΔEHost-PFCA ([4]; host vs host + PFNA) was 26.8, the ΔEHost-PFCA ([4]; host vs host + PFOA) was 40.6 and the ΔEHost-PFCA ([4]; host vs host + PFPeA) was 45.8. The ΔEHost-PFCA ([4]; host vs host + PFUnDA) was 30.5, the “colorimetric response to all nine PFCAs” value [5] was “strong colorimetric response” and the “ΔE between host and lowest PFOA concentration” value [6] was 4. The “1H NMR response to addition of GenX” value [7] was “showed shifts”.
